Publication PMC8699473, “An Easily Expandable Multi-Drug LC-MS Assay for the Simultaneous Quantification of 57 Oral Antitumor Drugs in Human Plasma” (Cancers, 2021)

Key:
[1] = Autosampler stability of ready for injection samples; type: physicochemical, human
[2] = set-up: method as in supplement references [1-55] as printed per drug; details: minimum steady-state blood plasma concentration after multiple dose administration; ref supplement references [1-55] per drug; cited from earlier work
[3] = Freeze-thaw stability in spiked pooled human plasma; type: physicochemical

CC(=O)Nc1cccc(-n2c(=O)n(C3CC3)c(=O)c3c(Nc4ccc(I)cc4F)n(C)c(=O)c(C)c32)c1 [Trametinib]
Autosampler (24h, 4°C) Accuracy [%] ([1]; validation standard 2xLLOV): 105.8% | Autosampler (72h, 4°C) Accuracy [%] ([1]; validation standard 2xLLOV): 101.8% | Autosampler (24h, 4°C) Accuracy [%] ([1]; validation standard LLOV): 101.7% | Autosampler (72h, 4°C) Accuracy [%] ([1]; validation standard LLOV): 100.1% | Autosampler (24h, 4°C) Accuracy [%] ([1]; validation standard MOV): 103.1% | Autosampler (72h, 4°C) Accuracy [%] ([1]; validation standard MOV): 103.5% | Autosampler (24h, 4°C) Accuracy [%] ([1]; validation standard ULOV): 97.7% | Autosampler (72h, 4°C) Accuracy [%] ([1]; validation standard ULOV): 97.0% | cmin [2]: 12.1 ng/mL | Freeze-Thaw Accuracy [%] ([3]; validation standard 2xLLOV): 97.6% | Freeze-Thaw Accuracy [%] ([3]; validation standard LLOV): 93.8% | Freeze-Thaw Accuracy [%] ([3]; validation standard MOV): 102.5% | Freeze-Thaw Accuracy [%] ([3]; validation standard ULOV): 97.0%

COc1cc2c(Nc3ccc(Br)cc3F)ncnc2cc1OCC1CCN(C)CC1 [Vandetanib]
Autosampler (24h, 4°C) Accuracy [%] ([1]; validation standard 2xLLOV): 103.5% | Autosampler (72h, 4°C) Accuracy [%] ([1]; validation standard 2xLLOV): 102.7% | Autosampler (24h, 4°C) Accuracy [%] ([1]; validation standard LLOV): 85.9% | Autosampler (72h, 4°C) Accuracy [%] ([1]; validation standard LLOV): 83.5% | Autosampler (24h, 4°C) Accuracy [%] ([1]; validation standard MOV): 108.2% | Autosampler (72h, 4°C) Accuracy [%] ([1]; validation standard MOV): 101.8% | Autosampler (24h, 4°C) Accuracy [%] ([1]; validation standard ULOV): 95.3% | Autosampler (72h, 4°C) Accuracy [%] ([1]; validation standard ULOV): 94.4% | cmin [2]: 795 ng/mL | Freeze-Thaw Accuracy [%] ([3]; validation standard 2xLLOV): 97.2% | Freeze-Thaw Accuracy [%] ([3]; validation standard LLOV): 83.4% | Freeze-Thaw Accuracy [%] ([3]; validation standard MOV): 101.5% | Freeze-Thaw Accuracy [%] ([3]; validation standard ULOV): 94.0%

CCCS(=O)(=O)Nc1ccc(F)c(C(=O)c2c[nH]c3ncc(-c4ccc(Cl)cc4)cc23)c1F [Vemurafenib]
Autosampler (24h, 4°C) Accuracy [%] ([1]; validation standard 2xLLOV): 103.5% | Autosampler (72h, 4°C) Accuracy [%] ([1]; validation standard 2xLLOV): 102.3% | Autosampler (24h, 4°C) Accuracy [%] ([1]; validation standard LLOV): 112.7% | Autosampler (72h, 4°C) Accuracy [%] ([1]; validation standard LLOV): 109.4% | Autosampler (24h, 4°C) Accuracy [%] ([1]; validation standard MOV): 99.5% | Autosampler (72h, 4°C) Accuracy [%] ([1]; validation standard MOV): 101.8% | Autosampler (24h, 4°C) Accuracy [%] ([1]; validation standard ULOV): 104.1% | Autosampler (72h, 4°C) Accuracy [%] ([1]; validation standard ULOV): 99.4% | cmin [2]: 39000 ng/mL | Freeze-Thaw Accuracy [%] ([3]; validation standard 2xLLOV): 98.2% | Freeze-Thaw Accuracy [%] ([3]; validation standard LLOV): 101.9% | Freeze-Thaw Accuracy [%] ([3]; validation standard MOV): 97.5% | Freeze-Thaw Accuracy [%] ([3]; validation standard ULOV): 99.2%

CC1(C)CCC(CN2CCN(c3ccc(C(=O)NS(=O)(=O)c4ccc(NCC5CCOCC5)c([N+](=O)[O-])c4)c(Oc4cnc5[nH]ccc5c4)c3)CC2)=C(c2ccc(Cl)cc2)C1 [Venetoclax]
Autosampler (24h, 4°C) Accuracy [%] ([1]; validation standard 2xLLOV): 106.9% | Autosampler (72h, 4°C) Accuracy [%] ([1]; validation standard 2xLLOV): 104.7% | Autosampler (24h, 4°C) Accuracy [%] ([1]; validation standard LLOV): 106.3% | Autosampler (72h, 4°C) Accuracy [%] ([1]; validation standard LLOV): 103.3% | Autosampler (24h, 4°C) Accuracy [%] ([1]; validation standard MOV): 100.0% | Autosampler (72h, 4°C) Accuracy [%] ([1]; validation standard MOV): 102.3% | Autosampler (24h, 4°C) Accuracy [%] ([1]; validation standard ULOV): 103.7% | Autosampler (72h, 4°C) Accuracy [%] ([1]; validation standard ULOV): 102.7% | cmin [2]: 520 ng/mL | Freeze-Thaw Accuracy [%] ([3]; validation standard 2xLLOV): 102.4% | Freeze-Thaw Accuracy [%] ([3]; validation standard LLOV): 105.4% | Freeze-Thaw Accuracy [%] ([3]; validation standard MOV): 97.8% | Freeze-Thaw Accuracy [%] ([3]; validation standard ULOV): 101.9%

CCC1=C[C@@H]2CN(C1)Cc1c([nH]c3ccccc13)[C@@](C(=O)OC)(c1cc3c(cc1OC)N(C)[C@H]1[C@@](O)(C(=O)OC)[C@H](OC(C)=O)[C@]4(CC)C=CCN5CC[C@]31[C@@H]54)C2 [Vinorelbine]
Autosampler (24h, 4°C) Accuracy [%] ([1]; validation standard 2xLLOV): 89.9% | Autosampler (72h, 4°C) Accuracy [%] ([1]; validation standard 2xLLOV): 87.3% | Autosampler (24h, 4°C) Accuracy [%] ([1]; validation standard LLOV): 65.0% | Autosampler (72h, 4°C) Accuracy [%] ([1]; validation standard LLOV): 67.9% | Autosampler (24h, 4°C) Accuracy [%] ([1]; validation standard MOV): 97.7% | Autosampler (72h, 4°C) Accuracy [%] ([1]; validation standard MOV): 99.6% | Autosampler (24h, 4°C) Accuracy [%] ([1]; validation standard ULOV): 102.4% | Autosampler (72h, 4°C) Accuracy [%] ([1]; validation standard ULOV): 99.5% | cmin [2]: 2.6 ng/mL | Freeze-Thaw Accuracy [%] ([3]; validation standard 2xLLOV): 105.8% | Freeze-Thaw Accuracy [%] ([3]; validation standard LLOV): 120.0% | Freeze-Thaw Accuracy [%] ([3]; validation standard MOV): 95.7% | Freeze-Thaw Accuracy [%] ([3]; validation standard ULOV): 96.7%

CS(=O)(=O)c1ccc(C(=O)Nc2ccc(Cl)c(-c3ccccn3)c2)c(Cl)c1 [Vismodegib]
Autosampler (24h, 4°C) Accuracy [%] ([1]; validation standard 2xLLOV): 105.1% | Autosampler (72h, 4°C) Accuracy [%] ([1]; validation standard 2xLLOV): 109.2% | Autosampler (24h, 4°C) Accuracy [%] ([1]; validation standard LLOV): 84.9% | Autosampler (72h, 4°C) Accuracy [%] ([1]; validation standard LLOV): 85.6% | Autosampler (24h, 4°C) Accuracy [%] ([1]; validation standard MOV): 108.4% | Autosampler (72h, 4°C) Accuracy [%] ([1]; validation standard MOV): 107.5% | Autosampler (24h, 4°C) Accuracy [%] ([1]; validation standard ULOV): 96.6% | Autosampler (72h, 4°C) Accuracy [%] ([1]; validation standard ULOV): 99.7% | cmin [2]: 11367 ng/mL | Freeze-Thaw Accuracy [%] ([3]; validation standard 2xLLOV): 103.4% | Freeze-Thaw Accuracy [%] ([3]; validation standard LLOV): 77.6% | Freeze-Thaw Accuracy [%] ([3]; validation standard MOV): 103.2% | Freeze-Thaw Accuracy [%] ([3]; validation standard ULOV): 94.1%
